ChEMBL document CHEMBL1909046, “DrugMatrix in vitro pharmacology data”

Legend:
[1] = DRUGMATRIX: beta-Lactamase enzyme inhibition (substrate: Nitrocefin); design: species or system Bacillus cereus; conditions: Not Active = under 50% inhibition at 10 µM
[2] = DRUGMATRIX: GABAA, Flunitrazepam, Central radioligand binding (ligand: [3H] Flunitrazepam); assay type: cell membranes, Rattus norvegicus, Wistar, Brain, Membrane; conditions: Not Active = under 50% inhibition at 10 µM
Histamine H2 receptor = Histamine H2 receptor (Homo sapiens, UniProt P25021); assay type: cell membranes, CHO-K1, Membrane; conditions: cho-k1; note: in other assays of this panel Not Active means under 50% inhibition at 10 µM
[3] = target: T1, Neuropeptide Y receptor type 1 (Homo sapiens, UniProt P25929); assay type: cell membranes, Membrane; conditions: sk-n-mc; note: in other assays of this panel Not Active means under 50% inhibition at 10 µM
T1 sequence (P25929 whole entry): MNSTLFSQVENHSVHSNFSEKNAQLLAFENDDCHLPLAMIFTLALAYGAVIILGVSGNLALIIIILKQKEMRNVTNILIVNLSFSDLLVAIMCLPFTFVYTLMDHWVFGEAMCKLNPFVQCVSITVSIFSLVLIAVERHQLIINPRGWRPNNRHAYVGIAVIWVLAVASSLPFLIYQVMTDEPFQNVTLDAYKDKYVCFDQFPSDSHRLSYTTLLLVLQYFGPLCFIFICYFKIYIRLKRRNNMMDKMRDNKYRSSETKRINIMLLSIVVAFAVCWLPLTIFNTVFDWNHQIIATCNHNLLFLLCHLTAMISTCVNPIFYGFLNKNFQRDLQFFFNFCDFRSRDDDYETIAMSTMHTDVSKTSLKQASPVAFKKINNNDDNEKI

[4] = target: cGMP-specific 3',5'-cyclic phosphodiesterase (Homo sapiens, UniProt O76074); test: DRUGMATRIX: Phosphodiesterase PDE5 enzyme inhibition (substrate: [3H]cGMP + cGMP); assay type: tissue-based, Platelet; conditions: platelet; Not Active = under 50% inhibition at 10 µM
Cytochrome P450 2A6 = target: T2, Cytochrome P450 2A6 (Homo sapiens, UniProt P11509); conditions: bti-tn-5b1-4; note: in other assays of this panel Not Active means under 50% inhibition at 10 µM
T2 sequence (P11509 whole entry): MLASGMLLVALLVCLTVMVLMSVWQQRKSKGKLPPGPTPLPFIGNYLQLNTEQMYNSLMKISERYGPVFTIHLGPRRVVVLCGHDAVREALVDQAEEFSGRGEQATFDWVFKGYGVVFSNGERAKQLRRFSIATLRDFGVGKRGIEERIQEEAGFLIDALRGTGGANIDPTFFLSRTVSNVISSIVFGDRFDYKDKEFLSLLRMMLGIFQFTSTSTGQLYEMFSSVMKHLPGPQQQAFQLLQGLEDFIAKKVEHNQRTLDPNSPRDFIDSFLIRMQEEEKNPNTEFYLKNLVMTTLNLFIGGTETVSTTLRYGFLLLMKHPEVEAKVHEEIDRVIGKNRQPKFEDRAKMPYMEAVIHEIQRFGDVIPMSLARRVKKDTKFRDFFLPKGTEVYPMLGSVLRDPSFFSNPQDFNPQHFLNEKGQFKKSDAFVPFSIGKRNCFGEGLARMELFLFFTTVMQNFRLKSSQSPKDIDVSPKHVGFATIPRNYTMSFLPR

Cytochrome P450 2C9 = Cytochrome P450 2C9 (Homo sapiens, UniProt P11712); conditions: bti-tn-5b1-4; note: in other assays of this panel Not Active means under 50% inhibition at 10 µM
Chain of Cytochrome P450 2C9 (P11712 whole entry): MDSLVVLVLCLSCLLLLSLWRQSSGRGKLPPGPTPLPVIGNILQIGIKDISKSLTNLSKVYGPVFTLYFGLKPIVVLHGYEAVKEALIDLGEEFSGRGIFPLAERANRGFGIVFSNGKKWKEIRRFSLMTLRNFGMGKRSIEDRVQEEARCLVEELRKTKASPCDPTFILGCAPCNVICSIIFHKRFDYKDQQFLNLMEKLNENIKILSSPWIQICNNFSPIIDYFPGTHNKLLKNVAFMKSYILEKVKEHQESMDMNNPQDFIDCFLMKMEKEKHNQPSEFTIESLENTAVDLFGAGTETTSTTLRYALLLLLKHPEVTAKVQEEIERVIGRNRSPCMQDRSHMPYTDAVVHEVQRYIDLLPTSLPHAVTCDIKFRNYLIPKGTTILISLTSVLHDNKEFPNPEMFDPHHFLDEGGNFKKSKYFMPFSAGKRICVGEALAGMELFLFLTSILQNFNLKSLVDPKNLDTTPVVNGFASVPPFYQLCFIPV

Chain of Histamine H2 receptor (P25021 whole entry): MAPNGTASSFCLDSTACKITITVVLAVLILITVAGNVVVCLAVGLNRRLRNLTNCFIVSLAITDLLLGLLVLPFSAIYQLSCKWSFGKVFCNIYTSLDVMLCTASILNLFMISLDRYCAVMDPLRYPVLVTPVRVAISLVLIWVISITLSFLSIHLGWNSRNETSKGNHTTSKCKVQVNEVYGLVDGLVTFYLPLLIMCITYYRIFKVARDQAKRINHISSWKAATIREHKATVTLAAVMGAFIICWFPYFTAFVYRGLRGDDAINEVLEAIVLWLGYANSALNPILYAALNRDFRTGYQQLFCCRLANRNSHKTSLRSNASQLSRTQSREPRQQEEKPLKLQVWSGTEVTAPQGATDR

CC(=O)O[C@H]1C(=O)[C@@]2(C)[C@H]([C@H](OC(=O)c3ccccc3)[C@]3(O)C[C@H](OC(=O)[C@H](O)[C@@H](NC(=O)c4ccccc4)c4ccccc4)C(C)=C1C3(C)C)[C@]1(OC(C)=O)CO[C@@H]1C[C@@H]2O [PACLITAXEL]
Not Active: IC50 [1] | Ki [1] | IC50 [2] | Ki [2] | IC50 (Histamine H2 receptor) | IC50 [3] | IC50 [4] | IC50 (Cytochrome P450 2A6) | Ki (Cytochrome P450 2A6) | IC50 (Cytochrome P450 2C9) | Ki (Cytochrome P450 2C9)

C[n+]1ccc(-c2cc[n+](C)cc2)cc1.[Cl-].[Cl-] [PARAQUAT DICHLORIDE]
Not Active: IC50 [1] | Ki [1] | IC50 [2] | Ki [2] | IC50 (Histamine H2 receptor) | IC50 [3] | IC50 [4] | IC50 (Cytochrome P450 2A6) | Ki (Cytochrome P450 2A6) | IC50 (Cytochrome P450 2C9) | Ki (Cytochrome P450 2C9)

CCn1cc(C(=O)O)c(=O)c2cnc(N3CCCC3)nc21 [PIROMIDIC ACID]
Not Active: IC50 [1] | Ki [1] | IC50 [2] | Ki [2] | IC50 (Histamine H2 receptor) | IC50 [3] | IC50 [4] | IC50 (Cytochrome P450 2A6) | Ki (Cytochrome P450 2A6) | IC50 (Cytochrome P450 2C9) | Ki (Cytochrome P450 2C9)

C[n+]1ccccc1/C=N/O.[Cl-] [PRALIDOXIME CHLORIDE]
Not Active: IC50 [1] | Ki [1] | IC50 [2] | Ki [2] | IC50 (Histamine H2 receptor) | IC50 [3] | IC50 [4] | IC50 (Cytochrome P450 2A6) | Ki (Cytochrome P450 2A6) | IC50 (Cytochrome P450 2C9) | Ki (Cytochrome P450 2C9)

COc1cc2nc(N3CCN(C(=O)c4ccco4)CC3)nc(N)c2cc1OC [PRAZOSIN]
Not Active: IC50 [1] | Ki [1] | IC50 [2] | Ki [2] | IC50 (Histamine H2 receptor) | IC50 [3] | IC50 [4] | IC50 (Cytochrome P450 2A6) | Ki (Cytochrome P450 2A6) | IC50 (Cytochrome P450 2C9) | Ki (Cytochrome P450 2C9)

C[C@]12C=CC(=O)C=C1CC[C@@H]1[C@@H]2[C@@H](O)C[C@@]2(C)[C@H]1CC[C@]2(O)C(=O)CO [PREDNISOLONE]
Not Active: IC50 [1] | Ki [1] | IC50 [2] | Ki [2] | IC50 (Histamine H2 receptor) | IC50 [3] | IC50 [4] | IC50 (Cytochrome P450 2A6) | Ki (Cytochrome P450 2A6) | IC50 (Cytochrome P450 2C9) | Ki (Cytochrome P450 2C9)

CC(=O)[C@H]1[C@H](C#N)C[C@H]2[C@@H]3CC=C4C[C@@H](O)CC[C@]4(C)[C@H]3CC[C@@]21C [PREGNENOLONE CARBONITRILE]
Not Active: IC50 [1] | Ki [1] | IC50 [2] | Ki [2] | IC50 (Histamine H2 receptor) | IC50 [3] | IC50 [4] | IC50 (Cytochrome P450 2A6) | Ki (Cytochrome P450 2A6) | IC50 (Cytochrome P450 2C9) | Ki (Cytochrome P450 2C9)

CCCN(CCC)S(=O)(=O)c1ccc(C(=O)O)cc1 [PROBENECID]
Not Active: IC50 [1] | Ki [1] | IC50 [2] | Ki [2] | IC50 (Histamine H2 receptor) | IC50 [3] | IC50 [4] | IC50 (Cytochrome P450 2A6) | Ki (Cytochrome P450 2A6) | IC50 (Cytochrome P450 2C9) | Ki (Cytochrome P450 2C9)

CCCOc1ccc(C(=O)OCCN(CC)CC)cc1N [PROPARACAINE]
Not Active: IC50 [1] | Ki [1] | IC50 [2] | Ki [2] | IC50 (Histamine H2 receptor) | IC50 [3] | IC50 [4] | IC50 (Cytochrome P450 2A6) | Ki (Cytochrome P450 2A6) | IC50 (Cytochrome P450 2C9) | Ki (Cytochrome P450 2C9)

Oc1cccc(O)c1O [PYROGALLOL]
Not Active: IC50 [1] | Ki [1] | IC50 [2] | Ki [2] | IC50 (Histamine H2 receptor) | IC50 [3] | IC50 [4] | IC50 (Cytochrome P450 2A6) | Ki (Cytochrome P450 2A6) | IC50 (Cytochrome P450 2C9) | Ki (Cytochrome P450 2C9)

AURANOFIN
Not Active: IC50 [1] | Ki [1] | IC50 [2] | Ki [2] | IC50 (Histamine H2 receptor) | Ki (Histamine H2 receptor) | IC50 [3] | Ki [3] | IC50 [4] | Ki [4] | IC50 (Cytochrome P450 2A6) | Ki (Cytochrome P450 2A6) | IC50 (Cytochrome P450 2C9) | Ki (Cytochrome P450 2C9)

GADOPENTETATE DIMEGLUMINE
Not Active: IC50 [1] | Ki [1] | IC50 [2] | Ki [2] | IC50 (Histamine H2 receptor) | Ki (Histamine H2 receptor) | IC50 [3] | Ki [3] | IC50 [4] | Ki [4] | IC50 (Cytochrome P450 2A6) | Ki (Cytochrome P450 2A6) | IC50 (Cytochrome P450 2C9) | Ki (Cytochrome P450 2C9)

GENTAMICIN
Not Active: IC50 [1] | Ki [1] | IC50 [2] | Ki [2] | IC50 (Histamine H2 receptor) | Ki (Histamine H2 receptor) | IC50 [3] | Ki [3] | IC50 [4] | Ki [4] | IC50 (Cytochrome P450 2A6) | Ki (Cytochrome P450 2A6) | IC50 (Cytochrome P450 2C9) | Ki (Cytochrome P450 2C9)

GRAMICIDIN
Not Active: IC50 [1] | Ki [1] | IC50 [2] | Ki [2] | IC50 (Histamine H2 receptor) | Ki (Histamine H2 receptor) | IC50 [3] | Ki [3] | IC50 [4] | Ki [4] | IC50 (Cytochrome P450 2A6) | Ki (Cytochrome P450 2A6) | IC50 (Cytochrome P450 2C9) | Ki (Cytochrome P450 2C9)

NYSTATIN
Not Active: IC50 [1] | Ki [1] | IC50 [2] | Ki [2] | IC50 (Histamine H2 receptor) | Ki (Histamine H2 receptor) | IC50 [3] | Ki [3] | IC50 [4] | Ki [4] | IC50 (Cytochrome P450 2A6) | Ki (Cytochrome P450 2A6) | IC50 (Cytochrome P450 2C9) | Ki (Cytochrome P450 2C9)
